Reference: paper PMC3045627 (Journal of medicinal chemistry, 2010)
Like-named read-outs stand apart in the source and are kept apart here.

How the values were obtained:
[1] = molecular target: human farnesyltransferase (hFTase) (Homo sapiens, UniProt P49354+P49356); test: In vitro hFTase inhibition: incorporation of [3H]FPP into recombinant H-Ras-CVLS; format: biochemical; details: for fold improvement in hFTase inhibitory activity relative to 1az: relative to parent 1az; for selectivity (ratio of GGTase-I to FTase IC50s): GGTase-I IC50 / hFTase IC50
[2] = system: farnesylation of H-Ras in oncogenic H-Ras-transformed NIH3T3 cells; test: Whole cell inhibition of farnesylation; format: cell-based; details: Mus musculus

Cn1cnc(S(=O)(=O)N(CCN(Cc2cncn2C)c2ccc(C#N)c(F)c2)CC2CCN(c3ncccn3)CC2)c1 [19e, [N-{2-[(3-Fluoro-4-cyanophenyl)-(3-methyl-3H-imidazol-4-ylmethyl)-amino]-ethyl}, N-{N-(2-Pyrimidinyl)-piperidin-4-ylmethyl}] 1-Methyl-1H-imidazole-4-sulfonamide]
fold improvement in hFTase inhibitory activity relative to 1az [1]: 2 fold

Cn1cnc(S(=O)(=O)N(CCN(Cc2cncn2C)c2ccc(C#N)nc2)CC2CCN(c3ncccn3)CC2)c1 [19b, N-(2-((2-Cyanopyridin-5-yl)((1-methyl-1H-imidazol-5-yl)methyl)-amino)ethyl)-1-methyl-N-((1-(pyrimidin-2-yl)piperidin-4-yl)methyl)-1H-imidazole-4-sulfonamide]
selectivity (ratio of GGTase-I to FTase IC50s) [1]: >19

Cn1cnc(S(=O)(=O)N(CCN(Cc2cncn2C)c2ccc(C#N)cc2)CC2CCCCC2)c1 [1ax]
GGTase-I/FTase selectivity ([1]; selectivity for hFTase over GGTase-I): about 9 fold
IC50 ([2]; NIH3T3, read-out: processing IC50 (μM) H-Ras): 0.1 ± 0.07 µM
IC50 ([2]; NIH3T3, read-out: whole cell H-Ras processing IC50): ~0.09 µM

Cn1cnc(S(=O)(=O)N(CCN(Cc2cncn2C)c2ccc(C#N)cc2)Cc2ccsc2)c1 [1ai, [N-(Thiophen-3-ylmethyl), N-{2-[(4-Cyanophenyl)-(3-methyl-3H-imidazol-4-ylmethyl)-amino]-ethyl}] 1-Methyl-1H-imidazole-4-sulfonamide]
times as potent against hFTase as isomeric 1ak ([1]; relative to 1ak): more than 34 times

Cn1cnc(S(=O)(=O)N(CCN(Cc2cncn2C)c2ccc(C#N)cc2)Cc2ccc(-n3cccc3)cc2)c1 [1av]
fold improvement of in vitro hFTase inhibition relative to 1au ([1]; relative to 1au): approximately 4 fold

Cn1cnc(S(=O)(=O)N(CCN(Cc2cncn2C)c2ccc(C#N)cc2Cl)CC2CCN(c3ncccn3)CC2)c1 [19a, [N-{2-[(2-Chloro-4-cyanophenyl)-(3-methyl-3H-imidazol-4-ylmethyl)-amino]-ethyl}, N-{N-(2-Pyrimidinyl)-piperidin-4-ylmethyl}] 1-Methyl-1H-imidazole-4-sulfonamide]
selectivity (ratio of GGTase-I to FTase IC50s) [1]: >18

Cn1cnc(S(=O)(=O)N(CCN(Cc2cncn2C)c2ccc(C#N)cc2)CC2CCN(C(=O)OC(C)(C)C)CC2)c1 [1ay]
fold drop in hFTase inhibition relative to 1ax ([1]; relative to 1ax): > 60 fold

Cn1cnc(S(=O)(=O)N(CCCN(Cc2cncn2C)c2ccc(C#N)cc2)Cc2ccccc2)c1 [20a]
fold drop in hFTase inhibitory activity relative to 1a ([1]; relative to 1a): > 7 fold

Cc1c(CN(CCN(Cc2cncn2C)c2ccc(C#N)cc2)S(=O)(=O)c2cn(C)cn2)cnn1C [1an, [N-(1,3,5-Trimethyl-1H-pyrazol-4-ylmethyl), N-{2-[(4-Cyanophenyl)-(3-methyl-3H-imidazol-4-ylmethyl)-amino]-ethyl}] 1-Methyl-1H-imidazole-4-sulfonamide]
selectivity (ratio of GGTase-I to FTase IC50s) [1]: >1.9

Cn1cnc(S(=O)(=O)N(CCN(Cc2cncn2C)c2ccc(C#N)cc2F)CC2CCN(c3ncccn3)CC2)c1 [19f, [N-{2-[(2-Fluoro-4-cyanophenyl)-(3-methyl-3H-imidazol-4-ylmethyl)-amino]-ethyl}, N-{N-(2-Pyrimidinyl)-piperidin-4-ylmethyl}] 1-Methyl-1H-imidazole-4-sulfonamide]
fold improvement in hFTase inhibitory activity relative to 1az [1]: approximately 8 fold

Cn1cnc(S(=O)(=O)N(CCN(Cc2cncn2C)c2ccc(C#N)cc2)CC2CCN(c3ncccn3)CC2)c1 [1az]
fold recovery of hFTase activity relative to 1ay ([1]; relative to 1ay): more than 7 fold

Cn1cnc(S(=O)(=O)N(CCN(Cc2cncn2C)c2ccc(C#N)cc2)Cc2ccncc2)c1 [1af]
selectivity (ratio of GGTase-I to FTase IC50s) [1]: >139
